Source: US12325880B2, “Identification of PDE3 modulator responsive cancers” (THE BROAD INSTITUTE, INC., priority 2018, dated 2025)

Assays:
Type in all cases: cell-based
[1] = test system: RVH421 melanoma cell line; test: 72 h Cell Titer Glo viability, RVH421
Experimental: (§1) To measure cancer cell death in response to 6-(4-(diethylamino)-3-nitrophenyl)-5-methyl-4,5-dihydropyridazin-3(2H)-one (DN/DP) treatment, cells were plated in 384w assay plates at the following cell density per well: 500 cells of HeLa (DMEM), A2058 (DMEM), HMCB (EMEM), IGR37 (DMEM), NCIH1734 (RPMI), 750 cells of CAL51 (DMEM), COL0741 (RPMI), DKMG (RPMI), GB1 (EMEM), HEL (RPMI), HEL9217 (RPMI), JHUEM1 (DMEM+F12), L3.3 (RPMI) and TE4 (RPMI), HCC15 (RPMI), UACC257 (RPMI), 1000 cells for HUT78 (IMEM), NCIH1563 (RPMI), NCIH2122 (RPMI), NCIH2172 (RPMI), RVH421 (RPMI) and SKMEL3 (McCoy's 5A), 1500 cells for C32 (EMEM), HS578T (DMEM) and JHOM1 (DMEM+F12). Cells were incubated at 37° C. overnight and then treated with a DNMDP dose dilution series using an HP D300 digital dispenser. After 72 hours, the viability of cells in each well were measured by Cell Titer Glo (Promega G755B and G756B). Percent viability values were determined using the values from untreated wells and AUC values were calculated using a 4-parameter fit. DNMDP was purchased from Life Chemicals (F1638-0042) and trequinsin was purchased from Sigma-Aldrich (T2057).

A2058 melanoma cell line = test: 72 h Cell Titer Glo viability, A2058; set-up: unit not given beside the values; conditions: 72 h Cell Titer Glo dose response, AUC on a scale from 0-4
Experimental: as §1
PDE3A CRISPR KO cells (sgRNA #2) were generated according to de Waal et al, 2016 (2), hereby incorporated by reference in its entirety. CRISPR target sites for PDE3B and AIP were identified using the CHOPCHOP CRISPR Design Tool (chopchop.cbu.uib.no). […]

HMCB melanoma cell line = test: 72 h Cell Titer Glo viability, HMCB; set-up: unit not given beside the values; conditions: 72 h Cell Titer Glo dose response, AUC on a scale from 0-4
Experimental: as §1

[2] = test system: SKMEL3 melanoma cell line; test: 72 h Cell Titer Glo viability, SKMEL3; set-up: unit not given beside the values; conditions: 72 h Cell Titer Glo dose response, AUC on a scale from 0-4
Experimental: as §1

HeLa cells = test: 72 h Cell Titer Glo viability, HeLa; set-up: AUC: unit not given beside the values
Experimental: as §1
(§2) PDE3A CRISPR KO cells (sgRNA #2) were generated according to de Waal et al, 2016 (2), hereby incorporated by reference in its entirety. CRISPR target sites for PDE3B and AIP were identified using the CHOPCHOP CRISPR Design Tool (chopchop.cbu.uib.no). For cloning of sgRNAs, forward and reverse oligos were annealed, phosphorylated and ligated into a BsmBI-digested lentiCRISPRv2 vector. Lentivirus carrying each guide construct was packaged as described above and used to infect target cells. Transduced target cells were selected using 1 μg/ml puromycin and passaged for 7 days before use.

[3] = test system: A2058 and SKMEL3 cells with CRISPR KO of SLFN12; test: 72 h Cell Titer-Glo survival of cells with CRISPR KO of SLFN12; conditions: CRISPR KO of SLFN12 (sg4)
Experimental: A2058 and SKMEL3 are representative melanoma cell lines. Survival is measured with a 72 h Cell Titer-Glo assay and CRISPR was performed with sg4, SLFN12 CRISPR guide RNA #4.
as §2
FIG. 3A illustrates the survival of cells in the presence of DNMDP that have had CRISPR knockout of SLFN12. FIG. 3B illustrates the survival of cells in the presence of DNMDP that have had CRISPR knockout of PDE3A (with and without ectopic expression of PDE3B). […] The survival in FIGS. 3A and 3B was measured with a 72 h Cell Titer-Glo assay and CRISPR was performed with sg4, SLNF12 CRISPR guide RNA #4.

[4] = test system: UACC257 melanoma cell line; test: 72 h Cell Titer Glo viability, UACC257; set-up: AUC: unit not given beside the values
Experimental: as §1

IGR37 melanoma cell line = test: 72 h Cell Titer Glo viability, IGR37; set-up: unit not given beside the values; conditions: 72 h Cell Titer Glo dose response, AUC on a scale from 0-4
Experimental: as §1

C32 melanoma cell line = test: 72 h Cell Titer Glo viability, C32; set-up: AUC: unit not given beside the values
Experimental: as §1

PDE3A-SLFN12 complex = target: T1, PDE3A-SLFN12 complex (Homo sapiens, UniProt Q14432); test: PDE3A immunoprecipitation / immunoblot for PDE3A-SLFN12 complex formation in HeLa cells; conditions: for complex formation between PDE3A and FLAG-tagged SLFN12 with AIP knocked out (FIG. 8B) / complex formation between PDE3A and FLAG-tagged SLFN12 (FIG. 8B): HeLa cells, anti-PDE3A pull down, 10 μM compound; for complex formation between PDE3A and FLAG-tagged SLFN12 with AIP knocked out (FIG. 8B): AIP Crispr knockout (KO sg2, KO sg3)
T1 construct: immunoprecipitated endogenous PDE3A; endogenous in cells; host or cells: HeLa cells, parental or AIP CRISPR knockout; PDE3A is endogenous; SLFN12 is ectopically expressed
T1 sequence (Q14432 whole entry): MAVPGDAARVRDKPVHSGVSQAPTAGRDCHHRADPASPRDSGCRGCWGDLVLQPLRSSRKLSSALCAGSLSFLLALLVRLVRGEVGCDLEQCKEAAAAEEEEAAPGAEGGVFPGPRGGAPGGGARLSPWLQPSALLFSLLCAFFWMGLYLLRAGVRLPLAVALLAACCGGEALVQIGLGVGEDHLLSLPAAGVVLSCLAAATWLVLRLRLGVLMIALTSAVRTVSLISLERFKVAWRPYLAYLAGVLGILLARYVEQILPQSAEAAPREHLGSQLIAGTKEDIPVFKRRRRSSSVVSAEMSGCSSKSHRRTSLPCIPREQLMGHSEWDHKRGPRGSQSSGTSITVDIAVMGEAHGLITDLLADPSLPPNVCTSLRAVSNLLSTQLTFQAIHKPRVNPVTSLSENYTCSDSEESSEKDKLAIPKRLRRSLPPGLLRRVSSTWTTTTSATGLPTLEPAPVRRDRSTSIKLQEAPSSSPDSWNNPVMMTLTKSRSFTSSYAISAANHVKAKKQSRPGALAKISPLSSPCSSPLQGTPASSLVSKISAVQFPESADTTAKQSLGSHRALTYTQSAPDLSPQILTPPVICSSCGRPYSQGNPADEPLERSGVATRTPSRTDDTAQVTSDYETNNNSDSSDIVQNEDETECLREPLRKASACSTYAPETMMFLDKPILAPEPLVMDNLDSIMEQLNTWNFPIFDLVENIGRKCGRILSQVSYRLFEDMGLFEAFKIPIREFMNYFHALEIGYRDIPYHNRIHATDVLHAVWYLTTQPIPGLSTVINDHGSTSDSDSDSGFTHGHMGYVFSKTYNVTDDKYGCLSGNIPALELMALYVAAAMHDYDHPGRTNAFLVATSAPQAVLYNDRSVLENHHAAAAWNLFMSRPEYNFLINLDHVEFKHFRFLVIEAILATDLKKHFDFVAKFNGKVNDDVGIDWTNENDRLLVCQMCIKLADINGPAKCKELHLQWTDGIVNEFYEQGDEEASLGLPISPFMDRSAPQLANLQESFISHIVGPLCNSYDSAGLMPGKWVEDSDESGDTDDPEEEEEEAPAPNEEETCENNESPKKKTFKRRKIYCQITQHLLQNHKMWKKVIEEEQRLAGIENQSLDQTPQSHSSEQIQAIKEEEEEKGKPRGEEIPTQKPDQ
T1 sequence (Q8IYM2 whole entry partner): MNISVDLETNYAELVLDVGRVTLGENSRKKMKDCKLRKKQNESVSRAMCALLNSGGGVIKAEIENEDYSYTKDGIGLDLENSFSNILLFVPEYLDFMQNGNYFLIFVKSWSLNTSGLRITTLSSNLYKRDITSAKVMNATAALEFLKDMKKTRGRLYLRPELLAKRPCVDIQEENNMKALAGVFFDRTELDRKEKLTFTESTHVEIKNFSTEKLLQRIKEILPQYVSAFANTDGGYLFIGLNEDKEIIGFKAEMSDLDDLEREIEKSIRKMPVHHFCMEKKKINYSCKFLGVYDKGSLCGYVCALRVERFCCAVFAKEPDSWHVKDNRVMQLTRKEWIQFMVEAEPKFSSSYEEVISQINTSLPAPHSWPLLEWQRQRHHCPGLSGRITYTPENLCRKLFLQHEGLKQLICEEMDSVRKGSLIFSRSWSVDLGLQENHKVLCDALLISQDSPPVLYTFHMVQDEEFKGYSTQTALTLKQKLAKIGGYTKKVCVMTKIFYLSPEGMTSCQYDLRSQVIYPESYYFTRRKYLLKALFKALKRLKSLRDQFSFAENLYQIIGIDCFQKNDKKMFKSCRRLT
Experimental: Because decreased PDE3A protein expression could impact DNMDP-induced PDE3A-SLFN12 complex formation, the effects of AIP knockout on this complex formation were also measured. As there is no good antibody for SLFN12 protein, we ectopically expressed V5-tagged SLFN12 in parental or AIP-knockout HeLa cells, immunoprecipitated endogenous PDE3A, and assessed whether V5-SLFN12 could be detected in the immunoprecipatites. Cells were plated in 10 cm petri dishes and collected at 50-90% confluence. For PDE3A immunoblotting in biomarker positive cells and in AIP KO cells, cells were seeded in 15 cm plates at similar density as in viability assays with a vessel scaling factor of 5000, e.g., 500 cells per well was scaled to 10^6 cells per 10 cm plate or 2.5×10^6 cells per 15 cm plate, and then cultured for 72 hours before collection. Cell pellets were lysed at 4° C. for 20 minutes in modified RIPA buffer (150 mM NaCl, 10% glycerol, 50 mM Tris-Cl pH 8.0, 50 mM MgCl2, 1% NP-40) supplemented with EDTA-free protease inhibitors (Sigma-Aldrich 4693159001) and PhosSTOP phosphatase inhibitors (Sigma-Aldrich 4906837001). Lysates were clarified by centrifugation at 13,000 rpm×10 min at 4° C. and quantified using BCA protein assays (Thermo Fisher Scientific 23225). Clarified lysates were resolved on 4-12% Bis-Tris PAGE gels, transferred to nitrocellulose membranes (Thermo Fisher Scientific IB23001) and immunoblotted with primary antibodies against PDE3A (Bethyl 302-740A, 1:2000), V5 (Life Technologies R96205 at 1:5,000), AIP (Thermo Fisher Scientific MA3-16515 at 1:2000), Vinculin (Sigma-Aldrich V9264 at 1:5,000), GAPDH (Cell Signaling Technology 2118 at 1:2000) and secondary antibodies from LiCOR Biosciences (92632210 and 926068021, each at 1:10,000). Blots were washed and imaged using a LiCOR Odyssey infrared imager, and fluorescent signals quantified using the Image Studio software provided by the LiCOR manufacturer.

[5] = test system: COLO741 melanoma cell line; test: 72 h Cell Titer Glo viability, COLO741; set-up: unit not given beside the values; conditions: 72 h Cell Titer Glo dose response, AUC on a scale from 0-4
Experimental: as §1

PDE3A-SLFN12 complex formation after AIP knockout (FIG. 7) (PDE3A-SLFN12 complex; AIP-knockout HeLa cells, V5-tagged SLFN12, PDE3A immunoprecipitates, 10 μM) | complex formation between PDE3A and FLAG-tagged SLFN12 with AIP knocked out (FIG. 8B) (PDE3A-SLFN12 complex) | complex formation between PDE3A and FLAG-tagged SLFN12 (FIG. 8B) (PDE3A-SLFN12 complex) | Structure (SMILES) | AUC ([1]; RVH421 (melanoma, PDE3B/SLFN12 biomarker-positive), 72 h Cell Titer Glo dose response, AUC on a scale from 0-4) | sensitivity of cell line (dose response, FIG. 2A) ([1]; RVH421 cells, 72 h Cell Titer-Glo) | AUC (A2058 melanoma cell line) | AUC (HMCB melanoma cell line) | AUC [2] | AUC (HeLa cells; HeLa (cervical), 72 h Cell Titer Glo dose response, AUC on a scale from 0-4) | cell response after AIP knockout (FIG. 6A) (HeLa cells; HeLa cells, AIP CRISPR knockout with independent gRNAs, 72-hour Cell Titer-Glo) | sensitivity in PDE3A knockout cells with ectopic PDE3B expression (FIG. 3B) (HeLa cells; PDE3A knockout HeLa cells, ectopic expression of PDE3B, 72 h Cell Titer-Glo) | sensitivity after SLFN12 knockout (FIG. 3A) [3] | AUC ([4]; UACC257 (melanoma, lacks AIP expression), 72 h Cell Titer Glo dose response, AUC on a scale from 0-4) | sensitivity of cell line (dose response, FIG. 2A) ([4]; UACC257 cells, 72 h Cell Titer-Glo) | AUC (IGR37 melanoma cell line) | AUC (C32 melanoma cell line; C32 (melanoma), 72 h Cell Titer Glo dose response, AUC on a scale from 0-4) | sensitivity of cell line (dose response, FIG. 2A) (C32 melanoma cell line; C32 cells, 72 h Cell Titer-Glo) | AUC [5] | cancer cell killing in cells lacking AIP (FIG. 8A) (HeLa cells; HeLa cells having an AIP knock out (KOsg2, KOsg3)) | cervical cancer cell viability (FIG. 8A) (HeLa cells; HeLa cells, increasing concentrations)
completely abolished | not observed | induced | CCN(CC)c1ccc(C2=NNC(=O)CC2C)cc1[N+](=O)[O-] (stereo not shown) [DNMDP, 6-(4-(diethylamino)-3-nitrophenyl)-5-methyl-4,5-dihydropyridazin-3(2H)-one] | 3.02 | only partially sensitive | 2.11 | 1.85 | 1.74 | 0.36 | AIP knockout eliminates HeLa cell response | support DNMDP sensitivity | SLFN12 knockout abrogates all measured sensitivity | 4.00 | completely insensitive | 1.17 | 3.13 | only partially sensitive | 1.19 | – | –
– | not observed | induced | C[C@@H]1OC(=O)NN=C1c1ccc(-c2ccc(F)cc2)c(C(F)(F)F)c1 [Compound X, (6S)-5-[4′-fluoro-2-(trifluoromethyl)biphenyl-4-yl]-6-methyl-3,6-dihydro-2H-1,3,4-oxadiazin-2-one] | – | – | – | – | – | – | – | – | – | – | – | – | – | – | – | no cancer cell killing was observed | reduced at increasing concentrations
